Key:
[1] = tested on: MPTP/3-NP-induced C57BL/6J mice; test: Rotarod in MPTP plus 3-NP intoxicated mice (MSA-P model); assay type: in vivo, mouse; conditions: 256 mg/kg body weight/day for one week after 9 days MPTP/3-NP, vs saline
Procedure: Male C57BL/6J mice (age, 8-12 weeks) were randomly assigned to 2 groups—vehicle control and MPTP/3-NP-induced groups. MPTP and 3-NP were administered during a 9-day intoxication period. 3-NP was administered i.p. every 12 h (total dose 450 mg/kg in 9 days) and MPTP i.p. at 10 mg/kg/day (total dose 90 mg/kg in 9 days).
Rotarod motor activity was measured before and after chronic MPTP/3-NP induction, respectively. Time spent on the rod at each level of revolving speed indicated motor performance. Mice were trained at the speed accelerating from 4 to 10 rpm over 5 min before the test (−7, −5, −3 Days). During the test, all animals started at 4 rpm and accelerated from 4 to 20 rpm over 5 min with each mouse experiencing three trials per day with inter-trial interval of 10 min. The average latency time of each mouse to fall is calculated.

[2] = tested on: B6SJL-Tg(SOD1*G93A)1Gur/J mice; test: SOD1*G93A transgenic ALS mice: behavioral tasks, body weight, survival; assay type: in vivo, mouse
Excerpt: Disease onset of B6SJL-Tg(SOD1*G93A)1Gur/J mice occurred at around 80-90 days of age, while progressive clinical weakness followed by paralysis and death occurred by 135-140 days.
In cohort 2, the male transgenic and wild-type littermates were randomly divided into 3 groups as cohort 1: vehicle (n=5), vehicle-ALS (n=6), and drug-ALS (n=11). Disease onset occurred at around 110-120 days of age, while progressive clinical weakness followed by paralysis and death occurred at around 150-155 days.
In cohort 1, drug regimen was initiated 8 weeks after birth and continued until the end of study. […] The vehicle groups received injections of the same volume of saline.
The drug regimen for cohort 2 was the same as that for cohort 1 except the dosing was started at 10 weeks of age.
Open field is an animal behavioral task that can monitor the overall spontaneous locomotor activity. Each animal was placed in an empty test arena (60 cm×60 cm plastic boxes) for 1 hour, and its activity was assessed by VersaMax Animal Activity Monitoring System (AccuScan Instruments, Inc. Columbus Ohio, USA). Total traveling distance, number of rearing movements and rearing time were analyzed. Performance of open field was measured 1-2 times per week.
In the open field task, each animal was placed in an empty test arena (43.2 cm×21.6 cm plastic boxes) for 1 hour, and its activity was assessed by Photobeam Activity System (San Diego Instruments, USA). Total traveling and rearing activities (beam break times) were analyzed. Performance of open field was measured once per week.
Rorarod task, which requires animals to balance and walk on a rotating cylinder, is a widely used test to measure coordinated motor skills. The mice were placed on a 5-channel automatic revolving rod apparatus (PanLab/Harvard Apparatus). […] After the training sessions, motor coordination was evaluated at 16 rpm for a maximum of 5 min. […] Performance of rotarod task was measured once per week, and the longest retention time for each animal was recorded.
A metal wire mesh (0.2 cm diameter, 1 cm×1 cm wide grid) was fixed horizontally 30 cm above the table. […] The latency to fall was recorded when the animal fell, and a maximum time of 180 s was assigned for analysis. There were two sessions for each individual with a 30-min interval, and the longer time was recorded. Performance of hanging test was measured once per week.
For each animal, body weight was measured weekly starting at 10 weeks of age. […]
Date and cause of death were recorded for each mouse. Animals were closely monitored and euthanized if moribund, which was defined as the inability of mice to right themselves 30 seconds after being placed on a side, in accordance with the criteria for severe morbidity. The moribund mice were recorded as “dead”, and euthanized using carbon dioxide.

primary cortical neurons = test: 3-NP induced toxicity in primary cortical culture (Hoechst staining, MAP-2 immunocytochemistry); assay type: cell-based, rat
Procedure: Primary cortical cultures were prepared from embryonic day 18 (E18) fetal Sprague Dawley (SD) rat brains. The cells were maintained in Neurobasal medium supplemented with B27 (GIBCO/Life Technologies of Thermo Fisher Scientific Corporation) at 37° C. for 7 days to allow growth of dendrites before experimentation.
3-NP (Cat. No. 73803, Sigma, St. Louis, Mo., USA) was dissolved in phosphate-buffered saline (PBS) as a stock solution of 1 M and adjusted to pH 7.4 with 10 M sodium hydroxide. The 3-NP stock solution was then dispensed into 1-ml aliquots, protected from light, and stored at −20° C. until use.
Hoechst staining is used to assess the extent of the cell survival. Cells were fixed in 4% paraformaldehyde (PFA) in phosphate-buffered saline (PBS), incubated with the Hoechst 33342 diluted in PBS (1:1000) for 5-15 minutes. The Hoechst staining is used to assess the extent of the cell survival after the exposure to 2.5 mM 3-NP for 24 hours.
Cells were fixed in 4% PFA and washed in PBS, blocked with 2% bovine serum albumin (BSA) and treated by 0.03% Triton X-100 in PBS, before being incubated with mouse monoclonal antibody against microtubule-associated protein-2 (MAP-2) in 1:150 dilution (Cat. No. MAB378, CHEMICON International, Inc., Temecula, Calif., USA). The goat anti-mouse IgG Alexa fluor-conjugated secondary antibodies (Cat No. A11003, Thermo Scientific) in 1:500 dilution were applied to recognize the primary antibodies of the MAP-2. For confocal microscopy, the coverslips were observed under a laser-scanning confocal microscope (Zeiss LSM700; Oberkochen, Germany) equipped with filter sets to detect the corresponding fluorescent signals.
The cells were then exposed to 2.5 mM 3-NP for 24 hours.
Quantitative analysis was also performed to assess the extents of cell death. At least three vision fields were randomly selected and the averaged numbers of dead cells and all nuclei per vision field on each coverslip were calculated.

[3] = tested on: cortical cells with Aβ25-35 exposure; test: Aβ25-35 cytotoxicity with or without NMDA receptor antagonist MK801, cell survival
Procedure: Aβ25-35 (Cat. No. A4559, Sigma) was dissolved in autoclaved ddH2O to make a stock solution of 2 mM, dispensed into aliquots, and immediately stored at −80° C. until use.
In this study, the application of MK801 could reveal whether the neuroprotective effects of drugs were mediated by NMDA receptor.

[4] = 256 mg/kg/day i.p., vs ALS mice treated with vehicle

With O=C([O-])c1ccccc1.[Li+] [lithium benzoate] the “retention time on rotarod” value [1] was “significantly improved”, the “proportion of mice surviving over time” value [2, 4] was “improved” and the weight change [2, 4] was “improved”. The “hind limb functions (number of rearing movements, rearing time; open field)” value ([2]; cohort 1, female, 256 mg/kg/day i.p. from 8 weeks, about 90 to about 130 days of age, vs saline ALS mice) was “significantly improved”, the “motor functions (hanging test, rotarod test, rearing activity, traveling activity)” value ([2]; cohort 2, male, 256 mg/kg/day i.p. from 10 weeks, about 133 to about 147 days of age, vs saline ALS mice) was “improved” and the “cell survival, drug only” value (primary cortical neurons; cortical culture treated only with lithium benzoate, not 3-NP) was “No difference”. The “cell survival (protection from 3-NP induced neuron death)” value (primary cortical neurons; lithium benzoate 1 mM or 3 mM pre-treatment 24 h, then 2.5 mM 3-NP 24 h) was “significantly protected”, the “MAP-2 immunocytochemistry, confocal microscopy” value (primary cortical neurons; lithium benzoate 1 or 3 mM, 3-NP exposure) was “neuronal protection” and the “protective effect with or without MK801 treatment” value ([3]; 0.5 mM, MK801 10 μM vs 0 μM) was “No obvious differences”. The “cell survival with Aβ25-35 exposure” value ([3]; post-treatment 0.5 mM, MK801 0 μM) was “elevate the cell survival”.

— patent US10668032B2 (SyneuRx International (Taiwan) Corp., priority 2016, dated 2020)
